For 16 compounds, IC50 and inhibition results are on record in patent US9315491B2 (DEVELOPMENT CENTER FOR BIOTECHNOLOGY, priority 2009, dated 2016).

In one experiment the test system is p-Akt S473 (mTORC2). The experiment is described as follows: Immunoblotting, PI3K/Akt/mTOR signal transduction, p-Akt S473. It is filed as cell-based. To be noted: Homo sapiens; PC-3 cell. The source says: (§1) For immunoblotting experiments, A549 cells were inoculated to the wells of a 6-well culture plate and cultured overnight. […] Proteins were separated by SDS-PAGE electrophoresis and transferred to PVDF membrane. Protein expression was immunobloted by various primary antibodies and detected by Immobilon Western Chemiluminescent HRP Substrate (Millipore). Antibody against Akt, phosphor-Akt (Ser473), phosphor-Akt (Thr308), p70 S6 Kinase, phosphor-p70 S6 Kinase (Thr389), 4E-BP1, and phosphor-4E-BP1 (Thr37/46) were purchased form Cell Signaling Technology.

A further experiment relates to p-S6K (mTORC1). Description: Immunoblotting, PI3K/Akt/mTOR signal transduction, p-S6K. The experiment is classed as cell-based. To be noted: Homo sapiens; PC-3 cell.
Source text: as §1

For a further experiment, the system named is A549 cells. The experiment is described as follows: Antiproliferation assay (MTS), A549. To be noted: Homo sapiens; A549, 72 hours of drug treatment. It is filed as cell-based.
A further experiment deals with PC-3 cells. The experiment is described as follows: Antiproliferation assay (MTS), PC-3. To be noted: Homo sapiens, PC3, 72 hours of drug treatment. It is filed as cell-based. As to the method:
(1) Antiproliferation Assay
PC-3, U-87 MG, HCC1954 and BT474 cell lines were purchased from the American Type Culture Collection (ATCC, USA). PC-3 was grown in F12K medium (GIBCO) containing 10% FBS. U-87 MG was grown in Eagle's minimum essential medium (MEM, Sigma) supplemented with nonessential amino acids, L-glutamine, sodium pyruvate, and 10% FBS. HCC1954 was grown in RPMI medium (GIBCO) containing 10% FBS. […] All cells were incubated in a humidified atmosphere containing 5% CO2 at 37° C.
Cell lines were inoculated to the wells of a 96-well culture plate with 1000-5000 cells per well. The compounds were prepared and used to treat cells with less than 1% DMSO. After 72 hours of drug treatment, the viability of each cell line was examined by CellTiter 96 Aqueous Non-Radioactive Cell Proliferation Assay (Promega). The living cells were detectable by conversion of MTS into aqueous, soluble formazan. MTS/PMS solution was freshly prepared and 20 μl of MTS/PMS solution was added to each well of the 96-well cultured plate. The assay plate was incubated for 3 hours and the absorbance at 490 nm was measured by EMax ELISA Reader (Molecular Devices). The IC50 values of compounds were determined after carrying out assays at eight serially diluted concentrations of each compound in triplicate, and are the mean of three separate determinations. The results were analyzed using linear regression software (GraphPad Prism 5; GraphPad Software Inc.).

A further experiment has as its target recombinant mTOR (Homo sapiens (Human), UniProt P42345). Description: mTOR kinase assay (33P incorporation into 4EBP1). To be noted: compound at 10 μM, 10 μM ATP. The experiment is classed as biochemical. An outline of the steps: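 Recombinant human mTOR (50 ng) phosphorylated His-tagged 4EBP1 (300 ng) with 10 μM ATP plus [γ-33P]-ATP in HEPES pH 7.5, MnCl2, EGTA and DTT for 30 min at 30° C. Labelled 4EBP1 was filter-captured and counted. IC50 was derived from eight-point duplicate dilution series.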

The next experiment has as its target PI3K (p110β/p85α) (Homo sapiens (Human), UniProt P42338). Description: PI3K HTRF enzyme assay, p110β/p85α. The experiment is classed as biochemical. To be noted: read-out: % inhibition @ 500 nM p110β; compound at 500 nM, 100 μM ATP. As to the method:
Recombinant PI3K (p110α/p85α) and PI3K (p110β/p85α) were from Millipore. […] Briefly, the compounds of interest dissolved in 100% DMSO were dispensed in all wells, following which the mixture of PIP2 and enzyme was added. PI3K (p110α/p85α) and PI3K (p110β/p85α) enzyme reactions were initiated in the presence of 10 μM and 100 μM ATP, respectively, and incubated for 30 min at room temperature. STOP solution prepared 2 hours prior to use was added to stop reactions, and mixed well. Detection solution prepared 2 hours prior to use was added, and incubated at room temperature for 17 hours in the dark. […] HTRF ration was calculated as follows: […]
(In general: In TR-FRET formats the signal depends on donor and acceptor labels being close together.)

Another experiment addresses PI3K (p110α/p85α) (Homo sapiens (Human), UniProt P42336). The experiment is described as follows: PI3K HTRF enzyme assay, p110α/p85α. It is filed as biochemical. To be noted: read-out: % inhibition @ 500 nM p110α; compound at 500 nM, 10 μM ATP. In a few lines: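 Recombinant PI3K heterodimers with PIP2 substrate; reactions ran 30 min at room temperature with 10 μM ATP for p110α/p85α and 100 μM ATP for p110β/p85α. After stop, HTRF detection followed 17 h incubation in the dark at room temperature; HTRF ratio used as read-out.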

For a further experiment, the system named is p-Akt T308 (PI3K). Description: Immunoblotting, PI3K/Akt/mTOR signal transduction, p-Akt T308. The experiment is classed as cell-based. To be noted: Homo sapiens; PC-3 cell.
Source text: as §1
Background: A western blot detects proteins with antibodies after separation by electrophoresis.

Sequence of PI3K (p110α/p85α) (P42336 whole entry, species assumed): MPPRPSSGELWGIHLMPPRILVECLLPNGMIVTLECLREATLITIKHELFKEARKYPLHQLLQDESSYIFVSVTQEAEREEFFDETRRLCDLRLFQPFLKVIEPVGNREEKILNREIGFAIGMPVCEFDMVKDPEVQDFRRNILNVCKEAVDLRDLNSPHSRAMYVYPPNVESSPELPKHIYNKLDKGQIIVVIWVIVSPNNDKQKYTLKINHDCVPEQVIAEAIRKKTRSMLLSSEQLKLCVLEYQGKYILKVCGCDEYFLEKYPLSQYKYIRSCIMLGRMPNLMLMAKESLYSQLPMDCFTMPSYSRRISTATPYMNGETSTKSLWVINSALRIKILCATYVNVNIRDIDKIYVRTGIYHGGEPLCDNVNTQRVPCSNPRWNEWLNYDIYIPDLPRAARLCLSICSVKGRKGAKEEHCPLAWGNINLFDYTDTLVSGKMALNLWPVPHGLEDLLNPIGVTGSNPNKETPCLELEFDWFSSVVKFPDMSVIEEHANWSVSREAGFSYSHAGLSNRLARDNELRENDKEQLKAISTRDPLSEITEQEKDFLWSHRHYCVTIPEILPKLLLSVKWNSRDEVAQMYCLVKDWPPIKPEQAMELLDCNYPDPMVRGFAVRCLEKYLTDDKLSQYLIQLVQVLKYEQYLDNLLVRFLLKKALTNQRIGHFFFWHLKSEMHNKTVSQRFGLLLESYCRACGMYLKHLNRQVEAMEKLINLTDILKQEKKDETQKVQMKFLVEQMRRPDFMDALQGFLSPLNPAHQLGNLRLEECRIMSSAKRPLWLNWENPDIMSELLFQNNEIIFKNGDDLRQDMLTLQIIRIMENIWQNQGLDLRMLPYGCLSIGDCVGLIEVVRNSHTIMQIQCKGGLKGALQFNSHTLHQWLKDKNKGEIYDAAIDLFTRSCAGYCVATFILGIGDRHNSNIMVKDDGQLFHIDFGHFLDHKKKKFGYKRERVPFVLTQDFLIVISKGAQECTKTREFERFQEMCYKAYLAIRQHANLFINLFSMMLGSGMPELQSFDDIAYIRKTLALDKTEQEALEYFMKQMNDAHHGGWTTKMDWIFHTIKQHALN
Sequence of PI3K (p110α/p85α) (P27986 whole entry partner, species assumed): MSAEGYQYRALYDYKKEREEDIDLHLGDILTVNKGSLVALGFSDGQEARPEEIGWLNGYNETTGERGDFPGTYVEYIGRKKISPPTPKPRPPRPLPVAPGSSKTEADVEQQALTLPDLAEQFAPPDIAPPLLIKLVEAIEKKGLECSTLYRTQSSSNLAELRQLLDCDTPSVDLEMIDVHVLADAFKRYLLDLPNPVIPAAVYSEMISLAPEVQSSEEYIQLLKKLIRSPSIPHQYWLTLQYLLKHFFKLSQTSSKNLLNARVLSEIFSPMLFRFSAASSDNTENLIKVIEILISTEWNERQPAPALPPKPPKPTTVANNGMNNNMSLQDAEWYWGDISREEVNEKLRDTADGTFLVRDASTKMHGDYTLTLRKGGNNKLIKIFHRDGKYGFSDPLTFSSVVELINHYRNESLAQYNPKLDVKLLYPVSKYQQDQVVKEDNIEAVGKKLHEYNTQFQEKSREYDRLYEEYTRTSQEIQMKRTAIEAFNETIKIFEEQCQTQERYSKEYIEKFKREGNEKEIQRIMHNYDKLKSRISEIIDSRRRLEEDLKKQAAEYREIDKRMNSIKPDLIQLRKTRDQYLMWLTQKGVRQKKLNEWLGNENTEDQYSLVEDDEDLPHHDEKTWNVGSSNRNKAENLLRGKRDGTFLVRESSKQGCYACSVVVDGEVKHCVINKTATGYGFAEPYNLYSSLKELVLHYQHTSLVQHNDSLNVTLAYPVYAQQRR
Sequence of PI3K (p110β/p85α) (P42338 whole entry, species assumed): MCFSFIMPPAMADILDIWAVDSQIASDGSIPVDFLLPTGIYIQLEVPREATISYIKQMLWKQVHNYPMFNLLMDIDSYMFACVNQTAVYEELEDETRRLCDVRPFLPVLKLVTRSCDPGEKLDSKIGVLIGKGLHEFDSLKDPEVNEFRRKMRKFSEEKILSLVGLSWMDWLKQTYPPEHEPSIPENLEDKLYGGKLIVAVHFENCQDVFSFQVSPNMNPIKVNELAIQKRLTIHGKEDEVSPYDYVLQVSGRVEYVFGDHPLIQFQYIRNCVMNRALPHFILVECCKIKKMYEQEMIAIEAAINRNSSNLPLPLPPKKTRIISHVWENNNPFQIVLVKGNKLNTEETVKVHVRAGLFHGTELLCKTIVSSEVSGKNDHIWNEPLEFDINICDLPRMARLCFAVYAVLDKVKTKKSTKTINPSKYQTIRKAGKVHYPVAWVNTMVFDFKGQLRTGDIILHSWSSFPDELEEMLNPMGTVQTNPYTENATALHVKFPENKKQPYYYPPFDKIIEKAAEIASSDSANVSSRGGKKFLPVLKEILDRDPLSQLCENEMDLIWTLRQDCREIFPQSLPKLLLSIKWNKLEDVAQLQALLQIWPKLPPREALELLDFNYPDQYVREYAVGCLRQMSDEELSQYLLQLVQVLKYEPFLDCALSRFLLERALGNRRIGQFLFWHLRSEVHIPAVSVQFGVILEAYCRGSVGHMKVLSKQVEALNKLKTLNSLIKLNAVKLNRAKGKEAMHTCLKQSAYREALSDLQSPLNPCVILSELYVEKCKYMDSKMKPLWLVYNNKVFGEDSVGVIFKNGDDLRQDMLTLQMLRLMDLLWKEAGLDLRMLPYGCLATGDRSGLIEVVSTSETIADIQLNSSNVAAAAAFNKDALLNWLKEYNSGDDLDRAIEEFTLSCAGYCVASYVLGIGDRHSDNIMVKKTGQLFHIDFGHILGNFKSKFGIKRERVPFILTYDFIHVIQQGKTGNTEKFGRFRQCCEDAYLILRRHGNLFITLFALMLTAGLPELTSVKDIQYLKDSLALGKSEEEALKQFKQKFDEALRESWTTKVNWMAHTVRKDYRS
Sequence of PI3K (p110β/p85α) (P27986 whole entry partner, species assumed): as the sequence (P27986 whole entry partner, species assumed) above
Sequence of recombinant mTOR (P42345 1360-2549): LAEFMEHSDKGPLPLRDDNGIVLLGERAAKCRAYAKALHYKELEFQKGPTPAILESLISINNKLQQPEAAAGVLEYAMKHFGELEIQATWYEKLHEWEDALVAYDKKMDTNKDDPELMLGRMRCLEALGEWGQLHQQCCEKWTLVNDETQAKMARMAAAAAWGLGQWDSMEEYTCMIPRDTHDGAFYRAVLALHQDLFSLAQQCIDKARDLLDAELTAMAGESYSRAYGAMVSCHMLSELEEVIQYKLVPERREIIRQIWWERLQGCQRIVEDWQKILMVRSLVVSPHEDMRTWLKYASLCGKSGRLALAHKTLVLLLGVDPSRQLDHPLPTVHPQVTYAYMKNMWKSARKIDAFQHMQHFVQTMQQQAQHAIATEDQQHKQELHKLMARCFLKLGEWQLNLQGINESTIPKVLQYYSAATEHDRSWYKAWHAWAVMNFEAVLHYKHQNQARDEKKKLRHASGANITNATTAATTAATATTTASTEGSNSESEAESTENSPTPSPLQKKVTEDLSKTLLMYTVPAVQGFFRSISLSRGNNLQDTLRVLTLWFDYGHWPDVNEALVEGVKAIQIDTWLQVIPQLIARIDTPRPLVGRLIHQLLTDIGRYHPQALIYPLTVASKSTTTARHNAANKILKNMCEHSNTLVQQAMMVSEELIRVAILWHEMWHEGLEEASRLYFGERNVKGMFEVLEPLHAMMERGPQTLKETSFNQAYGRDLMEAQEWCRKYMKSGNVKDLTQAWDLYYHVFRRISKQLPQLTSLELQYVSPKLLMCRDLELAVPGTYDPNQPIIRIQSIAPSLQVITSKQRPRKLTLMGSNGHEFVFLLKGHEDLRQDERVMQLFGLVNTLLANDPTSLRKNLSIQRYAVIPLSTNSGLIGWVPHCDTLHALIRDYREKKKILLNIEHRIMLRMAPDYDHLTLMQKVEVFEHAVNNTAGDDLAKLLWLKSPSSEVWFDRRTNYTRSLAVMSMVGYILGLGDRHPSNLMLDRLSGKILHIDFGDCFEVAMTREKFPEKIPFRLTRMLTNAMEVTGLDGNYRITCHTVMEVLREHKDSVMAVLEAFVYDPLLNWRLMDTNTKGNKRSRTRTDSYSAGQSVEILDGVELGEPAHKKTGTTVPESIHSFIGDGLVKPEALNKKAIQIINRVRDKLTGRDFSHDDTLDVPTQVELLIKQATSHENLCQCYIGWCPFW

One may read the IC50 as the concentration at which inhibition is half-maximal. In the case of `Cn1c(=O)n(-c2ccc(C(C)(C)C#N)cc2)c2c3cc(-c4cnc5ccccc5c4)ccc3ncc21` [BEZ-235], the IC50 in the experiment on p-Akt S473 (mTORC2) was 28.9 nM; in the experiment on p-S6K (mTORC1), under 10 nM.

In general, inhibition refers to the drop in the measured response relative to a control, in per cent. `CCOc1c(C(=O)N2CCN(S(C)(=O)=O)CC2)nc(-c2ccc(NC(=O)Nc3ccccc3)cc2)nc1N1CCOCC1` [MTR-0145, 1-{4-[5-Ethoxy-4-(4-methanesulfonyl-piperazine-1-carbonyl)-6-morpholin-4-yl-pyrimidin-2-yl]-phenyl}-3-phenyl-urea]: the IC50 in the experiment with A549 cells was 1360 ± 340 nM; with PC-3 cells, 432 ± 20 nM. For the same compound, on recombinant mTOR, the inhibition at 10 µM is 100%.

With `CS(=O)(=O)N1CCN(Cc2cc3nc(-c4cccc5[nH]ncc45)nc(N4CCOCC4)c3s2)CC1` [GDC-0941], the IC50 in the experiment on p-Akt S473 (mTORC2) came out at 11.5 nM; with p-S6K (mTORC1), 451 nM.

For `CSc1c(Cl)nc(-c2ccc(NC(=O)Nc3ccc(F)cc3)cc2)nc1N1CCOCC1` [MTR-0135, 1-[4-(4-Chloro-5-methylsulfanyl-6-morpholin-4-yl-pyrimidin-2-yl)-phenyl]-3-(4-fluoro-phenyl)-urea], the inhibition at 10 µM on recombinant mTOR worked out at 90%. Besides, the inhibition at 0.5 µM on PI3K (p110β/p85α) was 14.2%; on PI3K (p110α/p85α) it was 70.1%.

As to `CSc1cnc(-c2ccc(NC(=O)Nc3cccc(NC(C)=O)c3)cc2)nc1N1CCOCC1` [MTR-0377, N-(3-{3-[4-(5-Methylsulfanyl-4-morpholin-4-yl-pyrimidin-2-yl)-phenyl]-ureido}-phenyl)-acetamide], the IC50 amounted to 598 ± 18 nM in the experiment with A549 cells and 205 ± 6 nM with PC-3 cells. Also, the inhibition at 10 µM at recombinant mTOR is 97%.

For `COc1cnc(-c2ccc(NC(=S)Nc3cccc(F)c3)cc2)nc1N1CCOCC1` [MTR-0168, 1-(3-Fluoro-phenyl)-3-[4-(5-methoxy-4-morpholin-4-yl-pyrimidin-2-yl)-phenyl]-thiourea], the inhibition at 10 µM at recombinant mTOR came out at 91%. For the same compound, the inhibition at 0.5 µM at PI3K (p110β/p85α) was 20.2%; on PI3K (p110α/p85α) it was 65%.

On to `CSc1c(Cl)nc(-c2ccc(N)nc2)nc1N1CCOCC1` [MTR-0133, 5-(4-Chloro-5-methylsulfanyl-6-morpholin-4-yl-pyrimidin-2-yl)-pyridin-2-ylamine], for which, at recombinant mTOR, the inhibition at 10 µM worked out at 93%. Also, the figures for the inhibition at 0.5 µM on PI3K (p110β/p85α) and at PI3K (p110α/p85α) were 4.5% and 70%, respectively.

On to `CSc1c(Cl)nc(-c2ccc(NC(=O)Nc3ccccc3)cc2)nc1N1CCOCC1` [MTR-0091, 1-[4-(4-Chloro-5-methylsulfanyl-6-morpholin-4-yl-pyrimidin-2-yl)-phenyl]-3-phenyl-urea], for which the inhibition at 10 µM on recombinant mTOR came to 92%. Besides, the inhibition at 0.5 µM on PI3K (p110α/p85α) is 60.9%.

With `CSc1c(Cl)nc(-c2ccc(NC(=O)Nc3cccc(NC(C)=O)c3)cc2)nc1N1CCOCC1` [MTR-0270, N-(3-{3-[4-(4-Chloro-5-methylsulfanyl-6-morpholin-4-yl-pyrimidin-2-yl)-phenyl]-ureido}-phenyl)-acetamide], at recombinant mTOR, the inhibition at 10 µM worked out at 96%. Further, the inhibition at 0.5 µM at PI3K (p110α/p85α) is 41.1%.

As for `CO[C@H]1C[C@@H]2CC[C@@H](C)[C@@](O)(O2)C(=O)C(=O)N2CCCC[C@H]2C(=O)O[C@H]([C@H](C)C[C@@H]2CC[C@@H](O)[C@H](OC)C2)CC(=O)[C@H](C)/C=C(\C)[C@@H](O)[C@@H](OC)C(=O)[C@H](C)C[C@H](C)/C=C/C=C/C=C/1C` [Rapamycin, rapamycin, reference compound], the figures for the IC50 in the experiment with p-Akt T308 (PI3K), in the experiment with p-Akt S473 (mTORC2) and in the experiment with p-S6K (mTORC1) were over 1000 nM, under 10 nM and under 10 nM, respectively.

For `COc1cnc(-c2ccc(NC(=O)Nc3ccc(N)cc3)cc2)nc1N1CCOCC1` [MTR-0350, 1-(4-Amino-phenyl)-3-[4-(5-methoxy-4-morpholin-4-yl-pyrimidin-2-yl)-phenyl]-urea], the IC50 in the experiment with A549 cells was found to be 614 ± 28 nM; in the experiment on PC-3 cells, 188 ± 6 nM. Besides, the inhibition at 10 µM at recombinant mTOR stood at 95%.

Take `CSc1cnc(-c2ccc(NC(=O)Nc3ccccc3)cc2)nc1N1CCOCC1` [MTR-0162, 1-[4-(5-Methylsulfanyl-4-morpholin-4-yl-pyrimidin-2-yl)-phenyl]-3-phenyl-urea]: the inhibition at 10 µM on recombinant mTOR worked out at 95%. Also, the inhibition at 0.5 µM at PI3K (p110α/p85α) is 102%.

Regarding `CCOc1c(C(=O)N2CCOCC2)nc(-c2ccc(NC(=O)Nc3ccc(N4CCOCC4=O)cc3)cc2)nc1N1CCOCC1` [MTR-0280, 1-{4-[5-Ethoxy-4-(morpholine-4-carbonyl)-6-morpholin-4-yl-pyrimidin-2-yl]-phenyl}-3-[4-(3-oxo-morpholin-4-yl)-phenyl]-urea], the IC50 in the experiment on A549 cells came out at 382 ± 23 nM; in the experiment on PC-3 cells, 126 ± 8 nM. In addition, at recombinant mTOR, the inhibition at 10 µM is 95%.

On to `CSc1cnc(-c2ccc(NC(=O)Nc3ccc(F)cc3)cc2)nc1N1CCOCC1` [MTR-0178, 1-(4-Fluoro-phenyl)-3-[4-(5-methylsulfanyl-4-morpholin-4-yl-pyrimidin-2-yl)-phenyl]-urea], for which, at recombinant mTOR, the inhibition at 10 µM turned out to be 90%. In addition, the inhibition at 0.5 µM at PI3K (p110α/p85α) is 48.8%.

`Oc1cccc(-c2nc(N3CCOCC3)c3oc4ncccc4c3n2)c1` [PI-103]: the 50% inhibitory concentration (IC50) in the experiment on p-Akt S473 (mTORC2) turned out to be 35.6 nM; with p-S6K (mTORC1) it was 64.9 nM.

Take `CCOc1cnc(-c2ccc(NC(=O)Nc3ccc(N4CCOCC4=O)cc3)cc2)nc1-c1ccncc1` [MTR-0398, 1-[4-(5-Ethoxy-4-pyridin-4-yl-pyrimidin-2-yl)-phenyl]-3-[4-(3-oxo-morpholin-4-yl)-phenyl]-urea]: the IC50 came to 460 ± 28 nM with A549 cells and 179 ± 14 nM with PC-3 cells. Further, the inhibition at 10 µM at recombinant mTOR was 89%. Besides, the inhibition at 0.5 µM at PI3K (p110α/p85α) turned out to be 47%.
